In patent publication EP4583874B1, “MULTITARGET NUCLEAR RECEPTOR LIGANDS BASED ON 2-(4-(QUINOLIN-2-YLOXY)PHENOXY)PROPANOIC ACID AND 2-(4-(QUINOXALIN-2-YLOXY)PHENOXY)PROPANOIC ACID FOR THE TREATMENT OF METABOLIC AND LIVER DISEASES” (CHARLES UNIVERSITY, FACULTY OF PHARMACY IN HRADEC KRALOVE, priority 2022, dated 2024):

Legend:
[1] = system: C57BL/6J mice fed with high-fat diet; test: Proof-of-concept study in mice fed with high-fat diet, liver mRNA expression by RT-qPCR; type: in vivo; conditions: 10 mg/kg p.o. daily for three weeks, HFD mice
Experimental: The compound 37 has been applied daily (10 mg/kg) via p.o. gavage for three weeks to wild-type C57BL/6J mice fed with high-fat diet (HFD) for 24 weeks. After 24 h from the last application, mice were sacrificed, and live samples collected on dry ice for total RNA isolation. RT-qPCR experiments have been performed with TaqMan probes and expression has been quantified using a reference gene (Gapdh) and delta-delta method. Data represents fold up or downregulation in mRNA expression for tested genes related to the expression in vehicle-treated control animals. * - denotes statistically significant (p<0.05) up-regulation in animals treated with the compound of EXAMPLE 37 in comparison to animals fed with HFD only (n ≥ 10 in each groups). ^f - statistically significant effect of HFD diet on a gene expression. […]
Expressions of NR target genes mRNAs in livers of mice or in 3D cultured (spheroids) primary human hepatocytes have been performed using TaqMan probes-based RT-qPCR after isolation of total RNA by Trizol® (ThermoFischer Scientific) reagent and reverse transcription synthesis of cDNA in Quant Studio cycler. […] Delta-delta method and Gapdh or TATA-box binding protein (TBP) housekeeping genes were used for relative quantification. Data are expressed as fold up-/down-regulation compared to vehicle-treated samples/mice.

human LXRα = molecular target: T1, human LXRα (Homo sapiens, UniProt Q13133); test: LXRα luciferase reporter gene assay, inhibition of activation by GW3965 (pGAL4-LXRα / pGL5-UAS 9x) in HepG2 cells; type: cell-based; conditions: HepG2, 24 h; read-out: LXRα antagonism
T1 construct: DNA constructs encoding human LBD domains of human PPARα, PPARγ, of LXRα (pGAL4-PPARα, pGAL4-PPARγ, pGAL4-LXRα); expressed in transfected cells; host or cells: HepG2
T1 sequence (Q13133 209-447 limits assumed): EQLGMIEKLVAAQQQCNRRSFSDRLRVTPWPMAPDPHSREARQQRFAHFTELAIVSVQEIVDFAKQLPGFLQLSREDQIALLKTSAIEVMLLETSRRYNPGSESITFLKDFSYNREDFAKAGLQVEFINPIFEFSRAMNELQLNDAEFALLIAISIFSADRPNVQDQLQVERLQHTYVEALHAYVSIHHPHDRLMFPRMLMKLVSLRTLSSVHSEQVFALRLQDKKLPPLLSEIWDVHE
Experimental: Bezafibrate, GW7647 and WY14643 are known PPARα ligands. […] GW3965 is known high-affinity LXRα ligand.
Inverse agonistic/antagonistic activities of tested compounds to LXRα receptor activated by the LXRα agonist GW3965(10 µM). […] Negative value indicates inverse agonism.
In HepG2 cells, luciferase gene reporter assays have been performed with the transiently transfected reporter gene luciferase construct with the UAS yeast binding site interacting with GAL4 protein (pGL5-UAS 9x, Promega). DNA constructs encoding human LBD domains of human PPARα, PPARγ, of LXRα (pGAL4-PPARα, pGAL4-PPARγ, pGAL4-LXRα) have been cotransfected with the reporter construct. For FXR, FXRE-luc construct with FXR response elements upstream of Firefly luciferase has been used together with an expression construct for human FXR for HepG2 cells transfection. HepG2 cells were then treated with compounds of the invention for 24 h.

[2] = system: C57BL/6J mice fed with high fat diet; test: Proof-of-concept study in mice fed with high fat diet: plasma biochemistry, weights, IPGTT; type: in vivo; conditions: HFD mice; for glucose plasma levels in Intraperitoneal Glucose Tolerance Test (IPGTT): IPGTT 1.5 g/kg BW
Source text: Control group received a chow diet.
In the proof-of-concept study, after a 1-week of adaptation period, male C57BL/6J mice were randomly divided into three groups: (i) mice fed a chow diet (control; PicoLab RD 20, LabDiet) and tap water (n=4) or (ii) mice fed a high-fat diet (HFD) consisting of Western diet (AIN-76A WD, TestDiet, 20 % fat) and glucose (18.1 g/L) with fructose (24 g/L) provided in water. At week 21 on HFD diet, mice were randomly assigned into two experimental groups (10 and 11 mice per group): (ii) group on HFD, (iii) group on HFD administered with 10 mg/kg compound of EXAMPLE 37 as a salt (hydrochloride) (HFD +comp. 37). Compound of EXAMPLE 37or vehicle (1% methylcellulose) were administered once daily by oral gavage for another 3 weeks together with diets.
The i.p. Glucose tolerance test has been performed seven days before the termination of the study. For the purpose, […] of glucose dissolved in saline has been applied and blood was sampled in four intervals up to 120 minutes form tail vein. A standard glucometer was used to measure glycemia.
For biochemistry analyses, plasma liver enzyme activities were analyzed in plasma by a commercial Preventive Care Profile Plus test with Vetscan 2 device (Abaxis). Level of cholesterol and triglycerides in plasma and liver were measured by commercial kits (Erba Lachema s.r.o., Brno, Czech Republic).
Animals were sacrificed by anesthesia overdose. Plasma samples were obtained from the whole blood by centrifugation at 2,000 × g for 5 min at 4°C. The liver, gallbladder and abdominal fat were excised, weighted and immediately frozen in liquid nitrogen. All samples were stored at -80°C until analysis.

human PPARγ = molecular target: T2, human PPARγ (Homo sapiens, UniProt P37231); test: PPARγ luciferase reporter gene assay (pGAL4-PPARγ / pGL5-UAS 9x) in HepG2 cells; type: cell-based; conditions: HepG2, 24 h
T2 construct: DNA constructs encoding human LBD domains of human PPARα, PPARγ, of LXRα (pGAL4-PPARα, pGAL4-PPARγ, pGAL4-LXRα); expressed in transfected cells; host or cells: HepG2
T2 sequence (P37231 238-503 limits assumed): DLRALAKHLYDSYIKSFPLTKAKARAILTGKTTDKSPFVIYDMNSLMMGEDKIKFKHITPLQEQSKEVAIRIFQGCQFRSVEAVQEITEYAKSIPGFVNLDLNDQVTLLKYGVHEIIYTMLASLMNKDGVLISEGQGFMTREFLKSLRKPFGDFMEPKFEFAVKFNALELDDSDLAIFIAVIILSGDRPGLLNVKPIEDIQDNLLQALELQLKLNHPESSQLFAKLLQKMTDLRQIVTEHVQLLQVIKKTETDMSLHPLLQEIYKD

[3] = 10 mg/kg p.o. daily for 3 weeks (hydrochloride), vs HFD group

inhibition at 10 µM (human LXRα): 39%
ALP plasma levels [2, 3]: increases
Emax at 10 µM (human PPARγ): 1%
Compound: C[C@@H](Oc1ccc(Oc2ccc3c(Cl)cccc3n2)cc1)C(=O)O [compound 37, (R)-2-(4-((5-Chloroquinolin-2-yl)oxy)phenoxy)propanoic acid]
key genes of gluconeogenesis [1]: down-regulated
key genes involved in fatty acid (beta) oxidation (Ucp2, Hadha and Hadha) in mouse livers ([1]; vs HFD only): up-regulates
ALT plasma levels [2, 3]: improves
AST plasma levels [2, 3]: improves
plasma triglyceride (TG) levels [2, 3]: significantly decreases
abdominal fat weight (AFW) ([2]; 10 mg/kg p.o. daily for 3 weeks, effect not statistically significant): decreased
body weight (BW) ([2]; 10 mg/kg p.o. daily, after three weeks of treatment): significantly decreased
glucose plasma levels in Intraperitoneal Glucose Tolerance Test (IPGTT) ([2]; after 15 minutes, 10 mg/kg p.o. daily): significantly decreased
glucose plasma levels in Intraperitoneal Glucose Tolerance Test (IPGTT) ([2]; other intervals, 10 mg/kg p.o. daily): the decrease was not statistically significant
